Assay results from patent US7026469B2, “Compositions and methods of double-targeting virus infections and cancer cells” (Wake Forest University School of Medicine, priority 2000, dated 2006).
Where two headings read alike, the source gives them in different places.

Experiments:
[1] = system: CEM-SS cells; assay: Cytotoxicity (TC50) of the compounds tested for anti-HIV-1 activity; format: cell-based, human
Procedure: (§1) The inhibitory effects of PC lipids, non-PC lipid-AZT conjugates, and double-targeting PC lipid-AZT conjugate compounds of the invention on replication of HIV-1 virus in cells was examined using the plaque assay procedure described in Kucera et al. (1990, AIDS Research and Human Retroviruses, 6:491). CEM-SS cells were seeded at 50,000 cells per milliliter in RPMI growth medium as a monolayer in 96-well dishes, inoculated with 50 to 100 plaque forming units of HIV-1 and overlaid with serial dilutions of either PC lipid, non-PC lipid-AZT conjugate, or PC-lipid-AZT conjugate in RPMI-1640 growth medium supplemented with 10% fetal bovine serum. The structures of the tested compounds are described in Table 1. AZT and PC lipids were used as positive controls. […] The cytotoxicity of PC lipids, non-PC lipid-AZT conjugates and double targeting PC lipid-AZT conjugates was assessed using the procedure described in Kucera et al. (1990, AIDS Res. And Human Retrovir., 6:496, and 1998, Antiviral Chemistry and Chemotherapy, 9:160). [drawing 16]

[2] = system: human lymphocytes; assay: Metabolism of conjugate in human lymphocytes in tissue culture; format: in vitro ADME
Procedure: In another set of experiments the metabolism of the compound BM21-1290 using human lymphocytes in tissue culture was assessed. […] The predominant AZT species was AZT-MP with lesser amounts of AZT-DP, AZT-TP and AZT. […] AZT-MP can be activated to AZT-TP the inhibitor of HIV-1 induced reverse transcriptase.

[3] = Oral administration of phospholipid-AZT conjugate in rodents (distribution, half-life); set-up: species or system rodents (mice); conditions: mouse, in vivo
[4] = system: HIV-1; assay: HIV-1 syncytial plaque assay in CEM-SS cells; format: cell-based
Procedure: as §1
In the plaque assay, HIV-1 syncytial plaques are seen as large, multicellular foci (10 to 25 nuclei/syncytium) that appear either brown and granular or clear. Because the number of HIV-1 syncytial plaques was correlated with reverse transcriptase (RT) and p24 core antigen activity in the HIV-1 infected cell overlay fluids, the syncytial plaque assay could be used to quantify the amount of infectious virus. Reverse transcriptase activity was assayed according to the procedure described by Poeisz et al. (1980, Proc. Natl. Acad. Sci. U.S.A. 77:7415). The activity of p24 core antigen induced by HIV-1 infection of CEM-SS cells was measured spectrophotometrically using the commercial Coulter enzyme immunoassay (EIA).

[5] = system: Friend leukemia virus; conditions: cited from earlier work
[6] = system: herpes simplex virus type 2; assay: Herpes simplex virus type 2 plaque inhibition in Vero cells; format: cell-based
Procedure: Proof-of-concept of the antiviral activity of the double-targeting PC lipid-AZT conjugate compounds of the invention with respect to herpes simplex virus type 2 was evaluated and compared with that of PC lipid alone and with acyclovir (positive controls). Serial dilutions of PC lipid, PC lipid-AZT conjugate compound, or acyclovir were evaluated for inhibition of the formation of herpes simplex virus type 2 plaques in Vero cells and EC50 values were calculated from the results obtained. Briefly, the tests for anti-herpes simplex virus (HSV) activity and cytotoxicity of the compounds were performed by seeding 8×10^4 monkey kidney cells (Vero) per ml of D-MEM with 10% fetal bovine serum (FBS) in each well of a 12-well dish. The cultures were incubated at 37° C. to form a complete monolayer. To measure anti-HSV activity and effective concentration50 (EC50) each cell monolayer was infected with HSV diluted in PBS-A containing about 100 plaque forming units (PFU) per 0.1 ml. After virus attachment (1 hr., 37° C.) the infected monolayers were overlaid with E-MEM containing 2% FBS and 0.5% methyl cellulose with or without added serial concentrations of test compound. […] The EC50 values were calculated using a computer generated program.

[7] = system: AZT-resistant clinical isolates of HIV-1; assay: microbe, parasite or virus in culture; format: cell-based; conditions: for Fold-Increase (G-762 to G-691): post-AZT G-691 versus pre-AZT G-762; for Fold-Increase (H112-2 to G-910): post-AZT G-910 versus pre-AZT H112-2; for EC50: mean of 2 to 4 independent tests
Procedure: as §1
Evaluation of the clinical isolates to the compounds was performed using the plaque assay procedure described herein in Example 1. The matched pairs of clinical isolates were obtained through the AIDS Research and Reference Reagent Program, NIH, Bethesda, Md.

[8] = system: HIV-1 persistently infected H9IIIB cells; assay: Induction of defective HIV-1 in persistently infected H9IIIB cells (RT activity after infecting fresh CEM-SS cells); format: cell-based; conditions: for DPM-Bkg: RT activity in CEM-SS overlay medium after 7 or 9 days, H9IIIB cells treated with 1.0 μM compound for 14 or 11 days; for % Inhibition: inhibition of RT activity as measure of defective virus formation, 1.0 μM compound, 14 or 11 days
Procedure: HIV-1 persistently infected H9IIIB cells were washed twice to remove extracellular HIV-1, resuspended in fresh growth medium with or without 1.0 μM of compound for a total of 14 days. During the treatment period, the cells were subcultured 1:3 three times a week. In addition, on days 3, 7 and 11, the cells were pelleted to remove extracellular HIV-1 before subculture in fresh growth medium with or without the compound. After 14 or 11 days of treatment, the virus was pelleted (100,000×g, 1 hr, 4 C.) from the overlay medium to remove free compound, resuspended in fresh medium without compound and assayed for RT activity. The virus suspension was normalized to 500,000 RT DPM and used to infect fresh CEM-SS cells. The infected CEM-SS cells were incubated for a total of 7 or 9 days, and the overlay medium was harvested and assayed for induction of RT activity. The % inhibition of RT activity was used as a measure of defective virus formation during the treatment period.

[9] = system: monkey kidney cells (Vero); assay: Cytotoxicity in Vero cell monolayers (cell morphology); format: cell-based; conditions: 48 hours at 37° C., lowest concentration changing morphology in at least 25% of the cells; for CC50: read-out: Cytotoxicity (TC50)
Procedure: To measure cytotoxicity of the compounds, the cell monolayers (described above) were treated with a serial concentration of test compound for 48 hours at 37° C. and visually examined after crystal violet staining by light microscopy for changes in cell morphology (cell rounding, shrinking, detachment) compared to an untreated control culture.

[10] = plaques counted after five days at 37° C., CEM-SS cells, read-out: Anti-HIV-1 Activity (EC50)
[11] = Vero cells, 2 days at 37° C., replicate values in one cell, read-out: Anti-Herpes Simplex Activity (EC50)
[12] = post-AZT isolate, patient code G-691, read-out: EC50 Post-AZT G-691
[13] = post-AZT isolate, patient code G-910, read-out: EC50 Post-AZT G-910
[14] = pre-AZT isolate, patient code G-762, read-out: EC50 Pre-AZT G-762
[15] = pre-AZT isolate, patient code H112-2, read-out: EC50 Pre-AZT H112-2
[16] = acyclovir in replicate tests, read-out: EC50 against herpes simplex virus type 2

SMILES | CC50 ([1]; read-out: Cytotoxicity (TC50)) | EC50 [4, 10] | EC50 [6, 11] | Fold-Increase (G-762 to G-691) [7] | Fold-Increase (H112-2 to G-910) [7] | EC50 [7, 12] | EC50 [7, 13] | EC50 [7, 14] | EC50 [7, 15] | DPM-Bkg [8] | % Inhibition [8] | Cytotoxicity (TC50) [9] | CC50 [9] | other results
CCCCCCCCCCCCSCC(COP(=O)(O)OCC1OC(n2cc(C)c(=O)[nH]c2=O)CC1N=[N+]=[N-])OCCCCCCCCCC (stereo not drawn) [BM21-1290] | 38500 nM | 20 nM | – | – | – | – | – | – | – | – | – | – | – | intracellular metabolism [2]: metabolized to form an alkyl-lipid plus a phosphorylated species of AZT; free AZT in the plasma [3]: little or no detectable free AZT in the plasma; half-life [3]: 48 h; tissue uptake [3]: preferentially taken up into lymphoid tissues (lymphoma, spleen and thymus); concentration in the brain versus plasma ([3]; po): equivalent to the concentration of BM21-1290 in the plasma; oral bioavailability ([3]; po): orally bioavailable
CCCCCCCCCCOC(CNC(=O)CCCCCCCCC)COP(=O)([O-])OCC[N+](C)(C)C (stereo not drawn) [INK-11, 1-decanamido-2-decyloxypropyl-3-phosphocholine] | – | – | – | – | – | – | – | – | – | – | – | – | – | inhibition of FLV-induced pathogenesis (splenomegaly) ([5]; 50 milligrams per kilogram of body weight per day for 21 days, infected mice): 42%; suppression against RT activity ([5]; INK-11 compared with AZT alone): 42%
CCCCCCCCCCCCSCC(COP(=O)([O-])OCC[N+](C)(C)C)OCCCCCCCCOCc1ccccc1 (stereo not drawn) [INK-17, 3-dodecylthio-2-(8′-benzyloxyoctyloxy)propyl phosphocholine] | – | 150 ± 130 nM | > 4000 nM | 0 | 5.1 | 180 nM | 200 nM | 260 nM | 40 nM | 2847 DPM | 58% | toxic @ 4 | – | CC50 [1]: 49100 ± 13200 nM
CCCCCCCCCCCCSCC(COP(=O)([O-])OCC[N+](C)(C)C)OCCCCCCCCO (stereo not drawn) [INK-18, 3-dodeceylthio-2-(8′-hydroxyoctyloxy)propyl phosphophocholine] | 50000 ± 42000 nM | 1920 ± 1800 nM | – | 0 | 1.8 | 600 nM | 1040 nM | > 1060 nM | 560 nM | 4195 DPM | 38% | – | – | –
CCCCCCCCCCCCSCC(COC(=O)CC(=O)OC[C@H]1O[C@@H](n2cc(C)c(=O)[nH]c2=O)C[C@@H]1N=[N+]=[N-])OC (stereo partly drawn) [INK-19] | 6300 ± 1100 nM | 6 ± 1 nM | > 20000 nM | 13.5 | >55.6 | 1620 nM | > 1700 nM | 120 nM | 30 nM | 2508 DPM | 63% | – | > 20000 nM | –
CCCCCCCCCCCCSCC(COP(=O)([O-])OCC[N+](C)(C)C)OCCCCCCCCC(=O)OCC(=O)OC[C@H]1O[C@@H](n2cc(C)c(=O)[nH]c2=O)C[C@@H]1N=[N+]=[N-] (stereo partly drawn) [INK-20] | 6900 ± 600 nM | – | > 20000 nM | 18.6 | 22.0 | 740 nM | 440 nM | 40 nM | 20 nM | 2455 DPM | 64% | toxic @ 20 | – | fold increase in AZT-resistance among HIV-1 clinical isolates ([7]; text summary over both isolate pairs): about 20 fold; cytotoxicity [1]: 6.9 ± 0.6 µM; anti-HIV-1 activity relative to AZT ([4]; compared with AZT): more than ten-fold higher than AZT; EC50 ([4]; read-out: anti-HIV-1 activity): 0.9 nM
CCCCCCCCCCCCSCC(COP(=O)([O-])OCC[N+](C)(C)C)OCCCCCCCCCCOCc1ccccc1 (stereo not drawn) [INK-21] | 57300 ± 10800 nM | 1500 ± 230 nM | > 20000 nM | – | – | – | – | – | – | – | – | toxic @ 20 | – | –
CCCCCCCCCCCCSCC(COP(=O)([O-])OCC[N+](C)(C)C)OCCCCCCCCCCO (stereo not drawn) [INK-22] | > 90500 nM | 390 ± 310 nM | > 20000 nM | – | – | – | – | – | – | – | – | toxic @ 20 | – | –
CCCCCCCCCCCCSCC(COP(=O)([O-])OCC[N+](C)(C)C)OCCCCCCCCCCCCOCc1ccccc1 (stereo not drawn) [INK-23] | > 100000 nM | > 1460 nM | > 20000 nM | – | – | – | – | – | – | – | – | – | > 20000 nM | –
CCCCCCCCCCCCSCC(COP(=O)([O-])OCC[N+](C)(C)C)OCCCCCCCCCCCCO (stereo not drawn) [INK-24] | 80600 ± 6200 nM | 390 ± 390 nM | 13900 nM | 0 | <1.0 | 80 nM | 250 nM | 190 nM | 370 nM | 3087 DPM | 33% | – | > 20000 nM | EC50 [6, 16]: 13800 nM
CCCCCCCCCCCCSCC(COP(=O)([O-])OCC[N+](C)(C)C)OCCCCCCCCCCOC(=O)CC(=O)OC[C@H]1O[C@@H](n2cc(C)c(=O)[nH]c2=O)C[C@@H]1N=[N+]=[N-] (stereo partly drawn) [INK-25] | 13600 nM | 20 ± 10 nM | > 20000 nM | 2 | 2.5 | 60 nM | 10 nM | 30 nM | 4 nM | 2140 DPM | 54% | toxic @ 20 | – | –
CCCCCCCCCCCCSCC(COP(=O)([O-])OCC[N+](C)(C)C)OCCCCCCCCCCCCOC(=O)CC(=O)OC[C@H]1O[C@@H](n2cc(C)c(=O)[nH]c2=O)C[C@@H]1N=[N+]=[N-] (stereo partly drawn) [INK-26] | 11600 nM | 20 ± 20 nM | – | 20 | 1.5 | 60 nM | 30 nM | 3 nM | 20 nM | 1793 DPM | 61% | – | > 20000 nM | EC50 [6, 16]: 12000 nM
